Literature values, collected in patent publication US9463220B2, “Method for inducing twin calving” (China Agricultural University, priority 2013, dated 2016).

Test system: cow
Details: small doses of FSH with estrus synchronization 13 days before and aspiration of more than 3 large follicles on day 7

follicle-stimulating hormone [FSH]
rate of 2-3 ovulations: 90%
